Source: patent US5972943A, “Pyridinecarboxamide derivatives” (Nisshin Flour Milling Co., Ltd., priority 1996, dated 1999)

Tests used:
[1] = Behavior suppressing activity (background statement); format: in vivo; conditions: background / disclosure statement
hypoxic model of mice = test: Cerebral protective action (anti-anoxia action), hypoxic model of mice, gasping duration after decapitation; format: in vivo, ddY-strain male mice; conditions: 1.0 mg/kg i.v., 30 minutes before decapitation
Procedure: Cerebral protective action of the pyridinecarboxamide derivatives of this invention (an anti-anoxia action) were studied using a hypoxic model of mice.
Using ddY-strain male mice of 6 weeks old, the test substance of Compound 1, Compound 10 or Compound 11 was intravenously administered to the tail vein at the dose of 1.0 mg/kg. After 30 minutes from the administration, animals were decapitated to measure a gasping duration. This measurement was made by two persons who had not been informed of the test substances and the measured values were averaged to obtain the data. Also, the test was carried out in the same manner as described above except that Comparative Compound 1 was administered instead of the test substances.
The action of each substance will be shown in Table 2, with the gasping time of Comparative Compound 1 being defined as 1.
It is believed that grasping after decapitation is controlled by the respiratory center and, if the nervous functions are maintained by the respiratory center, the gasping duration would be prolonged. […] In view of the foregoing, the pyridinecarboxamide derivatives of this invention can prolong the gasping duration and then are useful as a cerebral protective agent.

[2] = tested on: hypoxia and anoxia models; conditions: Sakurai et al., Jpn. J. Pharmacol. 1993; cited from earlier work
[3] = Behavior suppressing action (general behaviors of mice); format: in vivo, ddY-strain mice; conditions: 10 mg/kg, tail vein; for Behavioral suppression: observed over one hour
Procedure: The effect of the present pyridinecarboxamide derivatives on general behaviors of mice was studied.
Using ddY-strain mice of 7 weeks old, test substance was administered at 100μ11/10 sec to the tail vein and behavior of the animal was observed over one hour. After the administration, sedative animal was evaluated as sedated, while animal with behavioral suppression was evaluated as suppressed.

[4] = tested on: cerebral edema, ischemic reperfusion model using SHR-SP; test: Anti-cerebral edema action (ischemic reperfusion model using SHR-SP); format: in vivo, male SHR-SP (spontaneous hypertensive rats); conditions: 1 mg/kg i.v. twice; for Inhibitory rate of cerebral ischemia (cerebral edema): immediately after ischemia and immediately before reperfusion
Procedure: The pyridinecarboxamide derivatives of this invention were studied for the inhibitory action on cerebral edema with the model using SHR-SP (Spontaneous hypertensive rats which are vulnerable to cerebral hemorrhage).
Male SHR-SP of 15-17 weeks old were measured for the blood pressure one day before the testing and classified into groups. Both common carotid arteries were separated under pentobarbital anesthesia at 35 mg/kg and common carotid arteries were fastened by clamp to cause ischemia. After 2 hours, the clamp was removed from the common carotid artery to reperfuse. After a further 2 hours, the animal was decapitated and the cerebrum excised under ether anesthesia. The cerebrum was dried in an oven at 105° C. for 24 hours and the cerebral water content (%) was calculated. [formula]
Compound 1 and Comparative Compound 2 were intravenously administered twice, that is, immediately after the ischemia and immediately before the reperfusion at the dose of 1 mg/kg, respectively.

[5] = tested on: lipid peroxidation in rat brain homogenate; test: Inhibitory action on lipid peroxidation in rat brain homogenate; format: biochemical, Wistar-strain male rats; conditions: 10^-4 M, 37° C., 15 minutes
Procedure: Inhibitory action on lipid peroxidation was studied in rat brain homogenate.
Wistar-strain male rats (weighing 230-300 g) were decapitated and the cerebrum was quickly excised. A 4 times volume of a solution of 50 mM phosphoric acid and […] NaCl (pH 7.4) was added and the mixture was homogenated and then centrifuged at 3000 rpm for 10 minutes. The supernatant thus obtained was prepared to give a protein level of 2 mg/ml.
Determination of lipid peroxide was carried out using TBA method (thiobarbituric acid). To the brain homogenate was added each of Compound 1, Compound 5, Compound 6, Compound 8, Compound 9, Compound 11 and Compound 14 as a test substance to give a final concentration of 10^-4 M, thereby initiating the reaction. After incubation at 37° C. for 15 minutes, the reaction was stopped in ice by adding a 35% perchloric acid solution. The reaction mixture was centrifuged at 4° C. and 1000 rpm for 5 minutes and to the supernatant thus obtained was added a 0.5% TBA solution. The mixture was boiled at 100° C. for 15 minutes. After cooling, absorbance was determined at 532 nm. 1,1,3,3-Tetraethoxypropane as a standard was subjected to the reaction in the same manner as above and an amount of lipid peroxide, that is, an amount of the malondialdehyde (MDA) produced was determined from the absorbance.
Inhibitory rate of lipid peroxidation was calculated according to the following equation: [formula]

hippocampus CA1 cells = test: Inhibitory rate of delayed neuronal death; format: in vivo, MON/Jms/Gbs-strain male jirds; conditions: 0.5 mg/kg, carotid artery, immediately after ischemia; jirds; 7 days
Procedure: MON/Jms/Gbs-strain male jirds (weighing 60-80 g) were fixed at the dorsal position under 1.5-2.0% halothane anesthesia and the common carotid artery was isolated. Ischemia was caused by fastening the common carotid artery with clamp for 3 minutes and then reperfused. After 7 days, the brain was excised under ether anesthesia and fixed with 10% formalin for 2 days and then tissue slices of the hippocampus were prepared. The hippocampus CA1 cells were stained using HE staining and the survival rate of the CA1 cells was evaluated.
Compound 1 was administered to the carotid artery at the dose of 0.5 mg/kg immediately after ischemia. Using as a control the case wherein the drug was not administered, inhibitory rate was calculated according to the following equation: [formula]

[6] = tested on: cerebral edema model using polyvinyl acetate; test: Anti-cerebral edema action (obstructive cerebral ischemia model using polyvinyl acetate); format: in vivo, Wistar-strain male rats; conditions: 1 mg/kg i.v., 5 minutes before polyvinyl acetate; rats
Procedure: Inhibiting action on cerebral ischemia was studied in an obstructive cerebral ischemia model using polyvinyl acetate.
The obstructive model was prepared as described below. (Hiroyoshi Nishi et al., Stroke 1989, 20:1236-1240)
Wistar-strain male rats weighing 200-350 g were used and fixed at the dorsal position under anesthesia of ether and then the left common carotid artery, internal carotid artery, external carotid artery were isolated. The external carotid artery was ligated, the pterylgopalatine artery was fastened with clamp and a cannula was inserted from the external carotid artery toward the branch between the internal carotid artery and the common carotid artery. 5 μl of a 3% polyvinyl acetate/52% ethanol solution in water was injected. After 30 seconds, the clamp was removed from the artery and then the wound was sutured. After 24 hours, animal was decapitated and the cerebrum was isolated, within 120 seconds from which wet weights of the left cerebrum and the right cerebrum were measured. The left and right cerebra were dried in an oven at 105° C. for 24 hours and then the dry weights were measured. A cerebral water content was calculated according to the following equation: [formula]
Compound 1 or Compound 9 was intravenously injected to the tail vein at the doses of 1.0 mg/kg and 3.0 mg/kg before 5 minutes from the administration of polyvinyl acetate.

[7] = known drug, background statement; cited from earlier work

SMILES	Gasping duration (relative to Comparative Compound 1 defined as 1) (hypoxic model of mice)	General behaviors (result in words) [3]	Behavioral suppression [3]	Inhibitory rate of lipid peroxidation [5]	further results
CN1CCN(c2ccc(C(=O)NCCCCCCCCCCCO[N+](=O)[O-])cn2)CC1 [Comparative Compound 1, N-(11-nitroxy-1-undecanyl)-6-(4-methyl-1-piperazinyl)nicotinamide, reference compound]	1	suppression of behavior being shown	Sedated		Behavior suppressing activity [1]: observed to possess a behavior suppressing activity; Cerebral protective effect on the hypoxia and anoxia models [2]: could show a cerebral protective effect on the hypoxia and anoxia models
CN1CCN(c2ccc(C(=O)NCCCCCCCCCCCCO[N+](=O)[O-])cn2)CC1 [Comparative Compound 2, N-(12-nitroxy-1-dodecanyl)-6-(4-methyl-1-piperazinyl)nicotinamide, reference compound]					Anti-cerebral edema activity (result in words) [4]: made cerebral edema worse; Inhibitory rate of cerebral ischemia (cerebral edema) [4]: -90%
CN1CCN(c2ccc(C(=O)NCCCCCCCCCCCCCCO[N+](=O)[O-])cn2)CC1 [Compound 1, N-(14-Nitroxytetradecyl)-6-(4-methyl-1-piperazinyl)pyridine-3-carboxamide]	2.6	No abnormalities were observed in general behaviors	Non	91%	Inhibitory rate (delayed neuronal death) (hippocampus CA1 cells): 47%; Inhibitory rate of cerebral edema [6]: 44.0%; Anti-cerebral edema activity (result in words) [4]: potent anti-cerebral edema activity; Inhibitory rate of cerebral ischemia (cerebral edema) [4]: 63%
CCN1CCN(c2ccc(C(=O)NCCCCCCCCCCCCCCO[N+](=O)[O-])cn2)CC1 [Compound 5, N-(14-Nitroxytetradecyl)-6-(4-ethyl-1-piperazinyl)pyridine-3-carboxamide]		No abnormalities were observed in general behaviors	Non	69%	
O=C(NCCCCCCCCCCCCCCO[N+](=O)[O-])c1ccc(N2CCNCC2)nc1 [Compound 6, N-(14-Nitroxytetradecyl)-6-(1-piperazinyl)pyridine-3-carboxamide]		No abnormalities were observed in general behaviors	Non	59%	
CCCN1CCN(c2ccc(C(=O)NCCCCCCCCCCCCCCO[N+](=O)[O-])cn2)CC1 [Compound 7, N-(14-Nitroxytetradecyl)-6-(4-propyl-1-piperazinyl)pyridine-3-carboxamide]		No abnormalities were observed in general behaviors	Non		
CC(C)N1CCN(c2ccc(C(=O)NCCCCCCCCCCCCCCO[N+](=O)[O-])cn2)CC1 [Compound 8, N-(14-Nitroxytetradecyl)-6-(4-isopropyl-1-piperazinyl)pyridine-3-carboxamide]		No abnormalities were observed in general behaviors	Non	70%	
CN1CCN(c2ccc(C(=O)NCCCCCCCCCCCCCCCCO[N+](=O)[O-])cn2)CC1 [Compound 9, N-(16-Nitroxyhexadecyl)-6-(4-methyl-1-piperazinyl)pyridine-3-carboxamide]		No abnormalities were observed in general behaviors	Non	72%	Inhibitory rate of cerebral edema [6]: 33.3%
CCN1CCN(c2ccc(C(=O)NCCCCCCCCCCCCCCCCO[N+](=O)[O-])cn2)CC1 [Compound 10, N-(16-Nitroxyhexadecyl)-6-(4-ethyl-1-piperazinyl)pyridine-3-carboxamide]	1.7	No abnormalities were observed in general behaviors	Non		
CC(C)N1CCN(c2ccc(C(=O)NCCCCCCCCCCCCCCCCO[N+](=O)[O-])cn2)CC1 [Compound 11, N-(16-Nitroxyhexadecyl)-6-(4-isopropyl-1-piperazinyl)pyridine-3-carboxamide]	1.4	No abnormalities were observed in general behaviors	Non	53%	
CN1CCN(c2ccc(C(=O)NCCCCCCCCCCCCCCCCCCO[N+](=O)[O-])cn2)CC1 [Compound 13, N-(18-Nitroxyoctadecyl)-6-(4-methyl-1-piperazinyl)pyridine-3-carboxamide]		No abnormalities were observed in general behaviors	Non		
O=C(NCCCCCCCCCCCCCCCCCCO[N+](=O)[O-])c1ccc(N2CCNCC2)nc1 [Compound 14, N-(18-Nitroxyoctadecyl)-6-(1-piperazinyl)pyridine-3-carboxamide]				75%	
CCN(CC)Cc1nccn1-c1ccc([N+](=O)[O-])cc1C(=O)c1ccccc1Cl [Nizofenone]					Behavior suppressing activity as a side-effect [7]: behavior suppressing activity
